Ki data for three molecules are collected here from ChEMBL document CHEMBL1687944, “Purification and inhibition studies with anions and sulfonamides of an α-carbonic anhydrase from the Antarctic seal Leptonychotes weddellii” (Bioorg Med Chem, 2011).

Chain of Carbonic anhydrase 1 (P00915 whole entry): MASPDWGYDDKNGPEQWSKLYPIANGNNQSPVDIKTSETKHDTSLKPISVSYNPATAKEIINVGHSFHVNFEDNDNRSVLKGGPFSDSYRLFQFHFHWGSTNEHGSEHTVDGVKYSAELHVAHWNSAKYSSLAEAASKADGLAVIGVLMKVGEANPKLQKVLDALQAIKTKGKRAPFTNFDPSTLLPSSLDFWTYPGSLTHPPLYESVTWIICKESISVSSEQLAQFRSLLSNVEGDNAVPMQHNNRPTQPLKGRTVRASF

The experiment has as its target Carbonic anhydrase 1 (Homo sapiens, UniProt P00915).
The molecule `O=S([O-])O.[Na+]` [SODIUM BISULFITE] gave a Ki of 18 mM.

`O=[N+]([O-])[O-].[Na+]` [SODIUM NITRATE] came in with an inhibitory constant (Ki) of 7 mM. Take `[O-][Cl+3]([O-])([O-])O` [SODIUM PERCHLORATE]: the Ki was greater than 200 mM.
